Key:
[1] = target: Serine/threonine-protein kinase pim-2 (Homo sapiens, UniProt Q9P1W9); assay: Selectivity interaction (KinomeScan (DiscoverX)) EUB0001049a PIM2; details: at 1 µM
[2] = target: Serine/threonine-protein kinase WNK2 (Homo sapiens) (UniProt Q9Y3S1); assay: Selectivity interaction (KinomeScan (DiscoverX)) EUB0001049a WNK2; details: at 1 µM
[3] = target: T1, TGF-beta receptor type-1 (Homo sapiens) (UniProt P36897); assay: Selectivity interaction (Ambit KINOMEscan and KiNATiv profiling in Jurkat cells) EUB0000090b TGFBR1; type: cell-based; details: at 1 µM
T1 sequence (whole entry): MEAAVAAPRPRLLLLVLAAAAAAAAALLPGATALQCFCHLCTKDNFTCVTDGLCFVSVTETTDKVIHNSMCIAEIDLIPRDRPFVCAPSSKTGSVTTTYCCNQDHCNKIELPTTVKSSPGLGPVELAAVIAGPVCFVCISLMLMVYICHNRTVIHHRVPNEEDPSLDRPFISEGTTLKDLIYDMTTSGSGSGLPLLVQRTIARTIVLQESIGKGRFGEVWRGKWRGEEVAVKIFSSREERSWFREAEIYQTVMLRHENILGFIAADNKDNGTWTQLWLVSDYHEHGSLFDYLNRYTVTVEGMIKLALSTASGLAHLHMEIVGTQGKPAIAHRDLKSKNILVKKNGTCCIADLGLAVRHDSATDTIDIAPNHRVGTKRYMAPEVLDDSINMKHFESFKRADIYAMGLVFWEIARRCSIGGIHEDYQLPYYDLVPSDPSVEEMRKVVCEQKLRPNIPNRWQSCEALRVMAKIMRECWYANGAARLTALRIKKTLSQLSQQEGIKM

[4] = target: Mitogen-activated protein kinase kinase kinase 9 (Homo sapiens) (UniProt P80192); assay: Selectivity interaction (Kinase panel (Invitrogen)) EUB0000639a MAP3K9; details: at 200 nM
Sequence of Mitogen-activated protein kinase kinase kinase 9 (Homo sapiens) (P80192 whole entry, looked up): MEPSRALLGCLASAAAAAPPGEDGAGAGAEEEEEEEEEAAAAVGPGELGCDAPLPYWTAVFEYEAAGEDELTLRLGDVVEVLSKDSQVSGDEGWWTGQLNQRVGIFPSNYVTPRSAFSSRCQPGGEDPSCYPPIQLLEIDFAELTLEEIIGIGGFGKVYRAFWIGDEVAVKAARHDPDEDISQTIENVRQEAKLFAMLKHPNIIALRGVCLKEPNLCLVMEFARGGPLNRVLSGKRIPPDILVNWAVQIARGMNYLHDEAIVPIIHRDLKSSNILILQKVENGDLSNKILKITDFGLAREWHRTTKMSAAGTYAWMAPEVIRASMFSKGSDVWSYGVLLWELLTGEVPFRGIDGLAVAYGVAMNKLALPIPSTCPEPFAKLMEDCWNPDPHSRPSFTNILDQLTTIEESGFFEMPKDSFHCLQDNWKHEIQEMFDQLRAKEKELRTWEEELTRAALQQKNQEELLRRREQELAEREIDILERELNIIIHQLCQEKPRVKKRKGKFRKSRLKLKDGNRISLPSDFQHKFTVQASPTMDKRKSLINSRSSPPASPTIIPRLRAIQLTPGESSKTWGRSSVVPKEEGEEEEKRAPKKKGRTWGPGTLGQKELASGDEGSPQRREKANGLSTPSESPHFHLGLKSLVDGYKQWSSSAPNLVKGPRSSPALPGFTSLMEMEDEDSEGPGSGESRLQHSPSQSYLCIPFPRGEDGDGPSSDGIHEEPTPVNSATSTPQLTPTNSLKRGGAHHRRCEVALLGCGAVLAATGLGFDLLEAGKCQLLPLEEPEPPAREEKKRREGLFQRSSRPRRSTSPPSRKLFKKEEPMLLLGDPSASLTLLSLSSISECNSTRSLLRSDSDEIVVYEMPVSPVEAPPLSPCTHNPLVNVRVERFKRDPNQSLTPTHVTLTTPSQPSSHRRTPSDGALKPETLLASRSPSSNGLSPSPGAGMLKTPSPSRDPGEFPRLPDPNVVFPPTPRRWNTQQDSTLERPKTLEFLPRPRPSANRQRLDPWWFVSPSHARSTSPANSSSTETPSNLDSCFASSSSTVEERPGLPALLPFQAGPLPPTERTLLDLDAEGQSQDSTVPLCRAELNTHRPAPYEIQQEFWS

[5] = target: Ribosomal protein S6 kinase alpha-5 (Homo sapiens) (UniProt O75582); assay: Selectivity interaction (Kinase panel (Z-LYTE Assay)) EUB0001632a RPS6KA5; details: at 10 µM
[6] = target: T2, Mitogen-activated protein kinase kinase kinase 13 (Homo sapiens) (UniProt O43283); assay: Selectivity interaction (KinomeScan (DiscoverX)) EUB0000695a MAP3K13; details: at 100 nM
T2 sequence (whole entry): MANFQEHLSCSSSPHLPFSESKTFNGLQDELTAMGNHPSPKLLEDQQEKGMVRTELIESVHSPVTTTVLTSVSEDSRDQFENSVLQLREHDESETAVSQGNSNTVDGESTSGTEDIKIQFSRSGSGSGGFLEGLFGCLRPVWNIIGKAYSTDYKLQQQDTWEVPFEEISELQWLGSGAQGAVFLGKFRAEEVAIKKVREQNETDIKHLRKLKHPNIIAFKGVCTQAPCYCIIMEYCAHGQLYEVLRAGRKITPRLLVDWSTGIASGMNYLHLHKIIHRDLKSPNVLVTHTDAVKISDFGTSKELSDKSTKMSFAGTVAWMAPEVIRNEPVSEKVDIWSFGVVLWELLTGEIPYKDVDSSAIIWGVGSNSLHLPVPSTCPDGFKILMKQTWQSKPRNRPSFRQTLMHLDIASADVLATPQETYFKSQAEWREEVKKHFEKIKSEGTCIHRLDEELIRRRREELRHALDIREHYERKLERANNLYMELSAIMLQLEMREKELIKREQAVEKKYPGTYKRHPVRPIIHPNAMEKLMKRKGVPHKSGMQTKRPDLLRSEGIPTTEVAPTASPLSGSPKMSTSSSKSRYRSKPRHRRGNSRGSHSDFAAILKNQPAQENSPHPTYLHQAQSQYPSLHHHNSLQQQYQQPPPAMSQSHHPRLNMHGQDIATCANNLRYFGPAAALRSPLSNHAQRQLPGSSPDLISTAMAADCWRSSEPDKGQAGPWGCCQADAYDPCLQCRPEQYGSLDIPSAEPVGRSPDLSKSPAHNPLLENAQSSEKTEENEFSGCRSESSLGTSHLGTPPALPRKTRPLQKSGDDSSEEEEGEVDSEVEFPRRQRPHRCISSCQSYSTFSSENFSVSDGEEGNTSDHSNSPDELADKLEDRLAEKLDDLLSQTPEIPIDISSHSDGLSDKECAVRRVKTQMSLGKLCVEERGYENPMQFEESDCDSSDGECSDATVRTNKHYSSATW

[7] = target: Mitogen-activated protein kinase 4 (Homo sapiens) (UniProt P31152); assay: Selectivity interaction (KinomeScan (DiscoverX)) EUB0000229b MAPK4; details: at 10 µM
Sequence of Mitogen-activated protein kinase 4 (Homo sapiens) (P31152 whole entry): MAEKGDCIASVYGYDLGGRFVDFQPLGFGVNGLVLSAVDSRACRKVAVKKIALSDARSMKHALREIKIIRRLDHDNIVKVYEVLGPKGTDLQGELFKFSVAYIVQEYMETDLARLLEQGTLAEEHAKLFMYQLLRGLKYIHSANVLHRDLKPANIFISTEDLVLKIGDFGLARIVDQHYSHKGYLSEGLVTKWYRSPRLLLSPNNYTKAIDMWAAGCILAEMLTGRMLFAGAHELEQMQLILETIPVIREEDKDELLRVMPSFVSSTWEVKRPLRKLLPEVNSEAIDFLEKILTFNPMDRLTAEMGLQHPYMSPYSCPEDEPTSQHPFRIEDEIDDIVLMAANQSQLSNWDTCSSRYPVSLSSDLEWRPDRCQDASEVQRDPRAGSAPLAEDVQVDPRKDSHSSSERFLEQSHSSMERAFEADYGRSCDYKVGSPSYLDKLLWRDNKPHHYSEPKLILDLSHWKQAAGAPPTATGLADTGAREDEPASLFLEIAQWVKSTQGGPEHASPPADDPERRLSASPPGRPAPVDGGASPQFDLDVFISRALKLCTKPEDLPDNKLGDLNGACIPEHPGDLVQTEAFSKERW

[8] = Selectivity interaction (KinomeScan (DiscoverX)) EUB0001079a CDK2H; details: at 1 µM
[9] = target: Receptor-type tyrosine-protein kinase FLT3 (Homo sapiens) (UniProt P36888); assay: Selectivity interaction (ProQinase) EUB0000171b FLT3; details: at 1 µM
[10] = target: Mitogen-activated protein kinase kinase kinase 10 (Homo sapiens) (UniProt Q02779); assay: Selectivity interaction (KinomeScan (DiscoverX)) EUB0000045b MAP3K10
Sequence of Mitogen-activated protein kinase kinase kinase 10 (Homo sapiens) (Q02779 whole entry, looked up): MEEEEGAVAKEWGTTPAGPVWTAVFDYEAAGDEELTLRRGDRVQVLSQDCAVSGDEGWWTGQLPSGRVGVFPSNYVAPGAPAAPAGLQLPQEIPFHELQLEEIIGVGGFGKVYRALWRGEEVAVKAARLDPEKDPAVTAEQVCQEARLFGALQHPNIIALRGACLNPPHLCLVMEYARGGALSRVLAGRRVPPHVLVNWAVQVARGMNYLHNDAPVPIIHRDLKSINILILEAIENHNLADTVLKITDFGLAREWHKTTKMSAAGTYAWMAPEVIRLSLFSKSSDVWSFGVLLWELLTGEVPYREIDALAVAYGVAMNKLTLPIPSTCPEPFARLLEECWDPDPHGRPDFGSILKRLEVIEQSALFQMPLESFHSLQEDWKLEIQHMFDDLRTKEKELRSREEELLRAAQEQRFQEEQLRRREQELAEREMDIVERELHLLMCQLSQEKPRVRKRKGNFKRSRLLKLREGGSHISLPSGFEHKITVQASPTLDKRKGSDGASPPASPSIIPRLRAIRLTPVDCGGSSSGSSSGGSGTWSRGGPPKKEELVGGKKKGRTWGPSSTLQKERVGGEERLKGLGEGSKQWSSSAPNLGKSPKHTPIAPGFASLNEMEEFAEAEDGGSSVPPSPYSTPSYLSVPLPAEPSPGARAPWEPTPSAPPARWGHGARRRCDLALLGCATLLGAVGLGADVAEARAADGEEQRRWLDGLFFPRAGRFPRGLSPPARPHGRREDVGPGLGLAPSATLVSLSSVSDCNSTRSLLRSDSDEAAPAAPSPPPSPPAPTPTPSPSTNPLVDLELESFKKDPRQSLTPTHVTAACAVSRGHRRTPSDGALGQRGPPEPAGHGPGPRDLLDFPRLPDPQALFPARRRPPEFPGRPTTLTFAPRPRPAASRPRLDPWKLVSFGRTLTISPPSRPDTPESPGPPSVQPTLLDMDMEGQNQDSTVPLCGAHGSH

[11] = target: Serine/threonine-protein kinase 10 (Homo sapiens) (UniProt O94804); assay: Selectivity interaction (KinomeScan (DiscoverX)) EUB0000045b STK10
Sequence of Serine/threonine-protein kinase 10 (Homo sapiens) (O94804 whole entry, looked up): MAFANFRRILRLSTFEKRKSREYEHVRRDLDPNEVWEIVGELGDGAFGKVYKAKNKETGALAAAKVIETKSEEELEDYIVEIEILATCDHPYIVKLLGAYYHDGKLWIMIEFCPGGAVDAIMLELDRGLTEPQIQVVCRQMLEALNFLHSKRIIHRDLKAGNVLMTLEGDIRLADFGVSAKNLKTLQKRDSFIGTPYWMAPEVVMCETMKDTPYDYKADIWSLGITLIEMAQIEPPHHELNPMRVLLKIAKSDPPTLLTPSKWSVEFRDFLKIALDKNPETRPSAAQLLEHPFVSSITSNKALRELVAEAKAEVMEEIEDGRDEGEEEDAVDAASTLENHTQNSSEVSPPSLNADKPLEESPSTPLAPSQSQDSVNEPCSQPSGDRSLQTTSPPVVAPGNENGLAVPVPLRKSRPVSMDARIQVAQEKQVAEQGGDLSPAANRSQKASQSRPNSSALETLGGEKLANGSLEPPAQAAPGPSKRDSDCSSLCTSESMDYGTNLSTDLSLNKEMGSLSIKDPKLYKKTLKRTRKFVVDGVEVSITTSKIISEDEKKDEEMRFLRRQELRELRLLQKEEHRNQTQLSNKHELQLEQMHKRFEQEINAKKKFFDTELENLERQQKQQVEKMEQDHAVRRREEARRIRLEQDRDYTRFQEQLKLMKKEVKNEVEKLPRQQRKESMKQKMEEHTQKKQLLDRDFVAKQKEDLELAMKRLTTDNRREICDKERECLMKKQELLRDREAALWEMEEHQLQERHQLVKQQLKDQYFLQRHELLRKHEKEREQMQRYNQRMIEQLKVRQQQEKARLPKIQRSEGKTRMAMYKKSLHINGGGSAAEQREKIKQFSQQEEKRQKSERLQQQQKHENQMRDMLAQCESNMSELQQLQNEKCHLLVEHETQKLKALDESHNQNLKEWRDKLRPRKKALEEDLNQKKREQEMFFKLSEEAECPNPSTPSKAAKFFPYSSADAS

[12] = target: Ribosomal protein S6 kinase alpha-4 (Homo sapiens) (UniProt O75676); assay: Selectivity interaction (KinomeScan (DiscoverX)) EUB0000618a RPS6KA4; details: at 10 µM
Sequence of Ribosomal protein S6 kinase alpha-4 (Homo sapiens) (O75676 whole entry, looked up): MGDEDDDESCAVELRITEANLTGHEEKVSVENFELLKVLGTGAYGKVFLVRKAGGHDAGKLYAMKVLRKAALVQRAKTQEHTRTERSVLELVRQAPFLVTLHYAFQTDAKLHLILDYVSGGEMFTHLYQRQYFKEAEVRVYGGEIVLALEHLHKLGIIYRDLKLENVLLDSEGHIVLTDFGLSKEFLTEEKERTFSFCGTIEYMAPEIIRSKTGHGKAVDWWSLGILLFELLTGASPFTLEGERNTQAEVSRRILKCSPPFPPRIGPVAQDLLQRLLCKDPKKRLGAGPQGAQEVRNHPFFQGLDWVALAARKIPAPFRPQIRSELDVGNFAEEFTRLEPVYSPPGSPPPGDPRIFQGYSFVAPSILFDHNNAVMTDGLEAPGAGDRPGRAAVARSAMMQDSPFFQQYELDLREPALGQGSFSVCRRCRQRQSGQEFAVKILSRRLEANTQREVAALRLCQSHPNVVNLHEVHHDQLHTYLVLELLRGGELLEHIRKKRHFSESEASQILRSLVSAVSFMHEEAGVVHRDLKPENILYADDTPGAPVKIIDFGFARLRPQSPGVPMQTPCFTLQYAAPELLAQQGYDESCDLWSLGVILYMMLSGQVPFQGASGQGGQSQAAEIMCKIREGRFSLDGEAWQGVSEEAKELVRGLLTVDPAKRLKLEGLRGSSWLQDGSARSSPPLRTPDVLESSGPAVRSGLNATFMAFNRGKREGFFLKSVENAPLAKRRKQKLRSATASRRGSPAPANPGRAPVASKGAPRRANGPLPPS

[13] = target: Macrophage-stimulating protein receptor (Homo sapiens, UniProt Q04912); assay: Selectivity interaction (KinomeScan (DiscoverX)) EUB0000607a MST1R; details: at 10 µM
[14] = target: T3, Mitogen-activated protein kinase kinase kinase 2 (Homo sapiens) (UniProt Q9Y2U5); assay: Selectivity interaction (KinomeScan (DiscoverX)) EUB0000607a MAP3K2; details: at 10 µM
T3 sequence (whole entry): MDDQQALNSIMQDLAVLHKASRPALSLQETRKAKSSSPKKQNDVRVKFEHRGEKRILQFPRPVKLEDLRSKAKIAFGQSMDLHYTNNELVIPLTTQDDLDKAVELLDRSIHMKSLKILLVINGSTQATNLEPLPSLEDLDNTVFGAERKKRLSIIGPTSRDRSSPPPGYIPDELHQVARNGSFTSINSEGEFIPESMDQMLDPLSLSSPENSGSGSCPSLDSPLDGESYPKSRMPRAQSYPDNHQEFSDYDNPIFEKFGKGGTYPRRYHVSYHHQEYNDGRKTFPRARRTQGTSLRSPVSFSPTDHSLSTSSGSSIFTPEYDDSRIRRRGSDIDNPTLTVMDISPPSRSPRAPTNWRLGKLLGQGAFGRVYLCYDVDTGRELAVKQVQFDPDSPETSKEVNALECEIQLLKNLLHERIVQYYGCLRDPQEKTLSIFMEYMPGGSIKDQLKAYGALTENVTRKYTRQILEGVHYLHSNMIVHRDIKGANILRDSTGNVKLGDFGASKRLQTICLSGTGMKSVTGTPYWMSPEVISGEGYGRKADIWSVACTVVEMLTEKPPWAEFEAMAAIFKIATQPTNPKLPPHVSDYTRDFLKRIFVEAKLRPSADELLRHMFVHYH

Sequence of Serine/threonine-protein kinase pim-2 (Q9P1W9 whole entry, looked up): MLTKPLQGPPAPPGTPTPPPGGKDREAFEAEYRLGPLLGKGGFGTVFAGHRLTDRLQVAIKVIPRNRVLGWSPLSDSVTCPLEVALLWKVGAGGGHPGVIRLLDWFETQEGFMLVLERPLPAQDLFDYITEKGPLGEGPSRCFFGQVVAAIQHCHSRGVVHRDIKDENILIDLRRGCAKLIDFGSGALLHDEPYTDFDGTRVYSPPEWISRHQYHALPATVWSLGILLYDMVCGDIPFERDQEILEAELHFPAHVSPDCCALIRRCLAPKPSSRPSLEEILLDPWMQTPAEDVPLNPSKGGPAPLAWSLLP

Question: Which results are given for `COc1cc(Nc2nc(C)cc(-c3cnn4nc(OC)ccc34)n2)cc(C(F)(F)F)c1`?
Answer: % of control [1]: 95%; % of control [2]: 100%

Question: With `CN(C)C/C=C/C(=O)Nc1ccc(C(=O)N2CCCC(Nc3ncc(Cl)c(-c4c[nH]c5ccccc45)n3)C2)cc1` (stereo unspecified) as the compound, how does the % of control [3] read?
Answer: 87%

Question: For `CC[C@@H]1[C@H](F)C(=O)N[C@@H]1COc1nccc2cc(C(N)=O)c(OC)cc12` [ZIMLOVISERTIB], which % of inhibition [4] is on record?
Answer: 5.9%

Question: For `Cn1cc(-n2cnc3c(NCc4nc5cc(Cl)c(Cl)cc5[nH]4)nc(N4CCOCC4)nc32)cn1`, which % of control [5] is on record?
Answer: 0.545%

Question: For `Cc1cc(F)c(C(=O)Nc2cccc(-c3nncn3C(C)C)n2)cc1-n1cnc(C2CC2)c1`, which % of control [6] is on record?
Answer: 97%

Question: For `COc1cc(N(C)c2ccnc3ccc(C(F)(F)F)cc23)cc(OC)c1OC`, which % binding [7] is on record?
Answer: 93%

Question: With `Nc1cnc(N2CCc3cc(S(=O)(=O)Nc4c(F)cc(Cl)cc4F)cc(N4CCCC4=O)c32)nc1` [TP-020n] as the compound, how does the % of control [8] read?
Answer: 100%

Question: Which % of control [9] does the source give for `C=CC(=O)Nc1cccc(C(=O)Nc2ccc(Nc3cc(-c4[nH]c(SC)nc4C)ccn3)cc2)c1` here?
Answer: 94%

Question: Which % of control ([10]; at 1 µM) does the source give for `C=CC(=O)Nc1cc(-n2c(=O)ccc3cnc4ccc(-c5ccc(NS(C)(=O)=O)cc5)cc4c32)ccc1C` here?
Answer: 100%

Question: And the % of control ([10]; at 10 µM)?
Answer: 100%

Question: And the % of control ([11]; at 1 µM)?
Answer: 87%

Question: What about the % of control ([11]; at 10 µM) of the same compound?
Answer: 100%

Question: Which % of control [12] does the source give for `O[C@H]1CC[C@H](Nc2ncc3nc(Nc4c(F)cc(F)cc4F)n([C@H]4CCOC4)c3n2)CC1` here?
Answer: 100%

Question: For `CNC(=O)Nc1ccc(-c2nc(N3CC4CCC(C3)O4)c3cnn(C4CCC5(CC4)OCCO5)c3n2)cc1`, which % of control [13] is on record?
Answer: 100%

Question: And the % of control [14]?
Answer: 95%

— ChEMBL document CHEMBL5465560, “Selectivity Literature for EUbOPEN Chemogenomic Library” (2024)
